19 compounds from US10239873B2, “7-azaindole or 4,7-diazaindole derivatives as IKKϵ epsilon and TBK1 inhibitor and pharmaceutical composition comprising same” (GREEN CROSS CORPORATION, priority 2015, dated 2019) can be followed below.

The target in test [1] is T1, TBK1 (Homo sapiens, UniProt Q9UHD2).
T1 construct: purchased Promega (Invitrogen is also named in the same bracket) V4158; PR8031B; V3991 (not assigned to the two kinases)
T1 sequence (Q9UHD2 1-729): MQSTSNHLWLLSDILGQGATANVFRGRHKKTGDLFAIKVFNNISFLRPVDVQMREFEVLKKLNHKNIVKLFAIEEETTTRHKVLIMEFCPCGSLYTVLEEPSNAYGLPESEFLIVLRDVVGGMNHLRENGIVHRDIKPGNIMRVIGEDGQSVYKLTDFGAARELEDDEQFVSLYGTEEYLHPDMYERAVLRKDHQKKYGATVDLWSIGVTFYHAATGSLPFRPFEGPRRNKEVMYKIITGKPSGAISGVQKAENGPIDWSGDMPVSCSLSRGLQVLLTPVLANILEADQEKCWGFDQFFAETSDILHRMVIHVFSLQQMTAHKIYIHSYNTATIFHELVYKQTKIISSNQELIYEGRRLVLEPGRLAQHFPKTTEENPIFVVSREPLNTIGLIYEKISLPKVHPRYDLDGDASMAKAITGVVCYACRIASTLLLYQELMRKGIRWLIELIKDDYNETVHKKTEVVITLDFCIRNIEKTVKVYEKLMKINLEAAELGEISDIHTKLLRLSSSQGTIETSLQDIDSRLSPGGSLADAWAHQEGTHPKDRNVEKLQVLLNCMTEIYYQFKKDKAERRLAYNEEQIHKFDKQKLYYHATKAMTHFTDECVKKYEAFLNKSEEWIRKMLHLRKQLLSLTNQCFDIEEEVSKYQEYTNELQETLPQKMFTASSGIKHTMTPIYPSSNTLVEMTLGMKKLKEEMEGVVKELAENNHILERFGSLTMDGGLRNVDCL
Kind of test: ADP-Glo Kinase Assay, inhibition activity on TBK1. Type of test: biochemical. The procedure, abridged: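 In 40 mM Tris pH 7.5 with 20 mM MgCl2 and 0.1 mg/mL BSA, each enzyme (IKKε or TBK1 kinase system) was run according to the manufacturer's protocol. ADP formed was detected by ADP-Glo luminescence.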
On the technique in general: In ADP-Glo the light output rises with the ADP produced.

In test [2] the target is T2, IKKε (Homo sapiens, UniProt Q14164).
T2 construct: purchased Promega and/or Invitrogen V4158; PR8031B; V3991 (not assigned to the two kinases)
T2 sequence (Q14164 1-716): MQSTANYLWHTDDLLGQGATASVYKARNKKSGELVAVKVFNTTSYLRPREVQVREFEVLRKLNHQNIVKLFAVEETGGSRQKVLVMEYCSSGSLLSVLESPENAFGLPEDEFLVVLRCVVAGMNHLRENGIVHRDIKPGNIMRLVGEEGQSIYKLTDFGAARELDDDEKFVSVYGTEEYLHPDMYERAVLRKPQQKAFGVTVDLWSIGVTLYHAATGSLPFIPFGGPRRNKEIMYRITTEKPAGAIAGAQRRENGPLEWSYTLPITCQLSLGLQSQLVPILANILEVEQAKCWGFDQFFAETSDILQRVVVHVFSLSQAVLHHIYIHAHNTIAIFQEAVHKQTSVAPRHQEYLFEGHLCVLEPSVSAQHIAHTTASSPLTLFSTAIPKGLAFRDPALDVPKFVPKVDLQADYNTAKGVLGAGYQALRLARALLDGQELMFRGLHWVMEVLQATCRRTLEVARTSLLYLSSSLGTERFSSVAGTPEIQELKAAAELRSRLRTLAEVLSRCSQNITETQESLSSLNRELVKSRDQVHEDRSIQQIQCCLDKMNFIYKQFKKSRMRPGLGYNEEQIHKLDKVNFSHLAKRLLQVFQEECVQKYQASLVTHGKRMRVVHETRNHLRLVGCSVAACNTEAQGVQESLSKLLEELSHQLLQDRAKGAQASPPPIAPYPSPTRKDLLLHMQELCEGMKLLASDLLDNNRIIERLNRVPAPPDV
Kind of test: ADP-Glo Kinase Assay, inhibition activity on IKKε. Type of test: biochemical. The method, then: Inhibition activities on IKKϵ and TBK1 were evaluated using the compounds of Examples 1 to 250.
The inhibition activities on IKKϵ and TBK1 were measured by a luminometer, IKKϵ/TBK1 Kinase Enzyme System (Promega, Ca# V4158; Invitrogen, PR8031B, Promega, Ca# V3991) and ADP-Glo Kinase Assay using ADP-Glo™ Kinase Analysis Kit (Promega, Ca# V9101) and a kinase reaction buffer [40 mM Tris(pH 7.5), 20 mM MgCl2, 0.1 mg/mL BSA] in accordance with the manufacturer's protocol.

Where a name gives a salt, the structure may show the parent alone.

What is called IC50 is the point on the concentration scale where inhibition reaches its midpoint. A high value points to weaker potency. Turning to `CC(C)NC(=O)N1CC=C(c2c[nH]c3ncc(-c4cccc(C(=O)N5CCN(C)CC5)c4)cc23)CC1` [Example 31, N-isopropyl-4-(5-(3-(4-methylpiperazine-1-carbonyl)phenyl)-1H-pyrrolo[2,3-b]pyridin-3-yl)-5,6-dihydropyridine-1(2H)-carboxamide], the results for the IC50 in test [1] and in test [2] were 15 nM and 46 nM, respectively.
The corresponding values for `CC(C)NC(=O)N1CC=C(c2c[nH]c3ncc(-c4ccc(C(=O)N5CCN(C)CC5)cc4)cc23)CC1` [Example 32, N-isopropyl-4-(5-(4-(4-methylpiperazine-1-carbonyl)phenyl)-1H-pyrrolo[2,3-b]pyridin-3-yl)-5,6-dihydropyridine-1(2H)-carboxamide] are 7 nM and 13 nM.
In the case of `CC(C)NC(=O)N1CC=C(c2c[nH]c3ncc(-c4ccc(CN5CCN(C)CC5)s4)cc23)CC1` [Example 33, N-isopropyl-4-(5-(5-((4-methylpiperazin-1-yl)methyl)thiophen-2-yl)-1H-pyrrolo[2,3-b]pyridin-3-yl)-5,6-dihydropyridine-1(2H)-carboxamide], the concentration for half-maximal inhibition (IC50) amounted to 1.1 nM in test [1] and 6.9 nM in test [2].
Turning to `CC(C)NC(=O)N1CC=C(c2c[nH]c3ncc(-c4ccc(CN5CCN(C)CC5)o4)cc23)CC1` [Example 35, N-isopropyl-4-(5-(5-((4-methylpiperazin-1-yl)methyl)furan-2-yl)-1H-pyrrolo[2,3-b]pyridin-3-yl)-5,6-dihydropyridine-1(2H)-carboxamide], the IC50 in test [1] was found to be 18 nM; in test [2] it was 110 nM.
As to `CC(C)NC(=O)N1CC=C(c2c[nH]c3ncc(-c4ccc(NC5CCOCC5)cc4)cc23)CC1` [Example 37, N-isopropyl-4-(5-(4-((tetrahydro-2H-pyran-4-yl)amino)phenyl)-1H-pyrrolo[2,3-b]pyridin-3-yl)-3,6-dihydropyridine-1(2H)-carboxamide], the IC50 in test [1] was 10 nM; in test [2], 13 nM.
The corresponding values for `CC(C)NC(=O)N1CC=C(c2c[nH]c3ncc(-c4ccc(OC5CCOCC5)cc4)cc23)CC1` [Example 38, N-isopropyl-4-(5-(4-((tetrahydro-2H-pyran-4-yl)oxy)phenyl)-1H-pyrrolo[2,3-b]pyridin-3-yl)-3,6-dihydropyridine-1(2H)-carboxamide] are 29 nM and 21 nM.
The corresponding values for `CC(C)NC(=O)N1CC=C(c2c[nH]c3ncc(-c4ccc(N)c5c4CNC5=O)cc23)CC1` [Example 39, 4-(5-(7-Amino-1-oxoisoindolidin-4-yl)-1H-pyrrolo[2,3-b]pyridin-3-yl)-N-isopropyl-3,6-dihydropyridine-1(2H)-carboxamide] are 35 nM and 35 nM.
Turning to `CCC(CC)NC(=O)N1CC=C(c2c[nH]c3ncc(-c4ccc(CN5CCOCC5)s4)cc23)CC1` [Example 40, 4-(5-(5-(Morpholinomethyl)thiophen-2-yl)-1H-pyrrolo[2,3-b]pyridin-3-yl)-N-(pentan-3-yl)-3,6-dihydropyridine-1(2H)-carboxamide], the IC50 in test [1] is 74 nM; in test [2], 170 nM.
The corresponding values for `CCC(CC)NC(=O)N1CC=C(c2c[nH]c3ncc(-c4ccc(CN5CCN(C)CC5)s4)cc23)CC1` [Example 41, 4-(5-(5-((4-Methylpiperazin-1-yl)methyl)thiophen-2-yl)-1H-pyrrolo[2,3-b]pyridin-3-yl)-N-(pentan-3-yl)-3,6-dihydropyridine-1(2H)-carboxamide] are 47 nM and 220 nM.
The corresponding values for `CCC(C)NC(=O)N1CC=C(c2c[nH]c3ncc(-c4ccc(CN5CCN(C)CC5)s4)cc23)CC1` (centres unmarked) [Example 42, N-(sec-butyl)-4-(5-(5-((4-methylpiperazin-1-yl)methyl)thiophen-2-yl)-1H-pyrrolo[2,3-b]pyridin-3-yl)-5,6-dihydropyridine-1(2H)-carboxamide] are 1.9 nM and 62 nM.
The corresponding values for `O=C(NC1CC1)N1CC=C(c2c[nH]c3ncc(-c4ccc(CN5CCNCC5)s4)cc23)CC1` [Example 45, N-cyclopropyl-4-(5-(5-(piperazin-1-ylmethyl)thiophen-2-yl)-1H-pyrrolo[2,3-b]pyridin-3-yl)-5,6-dihydropyridine-1(2H)-carboxamide dihydrochloride] are 3.3 nM and 24 nM.
In the case of `CN1CCN(Cc2ccc(-c3cnc4[nH]cc(C5=CCN(C(=O)NC6CC6)CC5)c4c3)cc2)CC1` [Example 46, N-cyclopropyl-4-(5-(4-((4-methylpiperazin-1-yl)methyl)phenyl)-1H-pyrrolo[2,3-b]pyridin-3-yl)-5,6-dihydropyridine-1(2H)-carboxamide], the figures for the IC50 in test [1] and in test [2] were 14 nM and 25 nM, respectively.
Consider `CN1CCN(Cc2ccc(-c3cnc4[nH]cc(C5=CCN(C(=O)NC6CC6)CC5)c4c3)s2)CC1` [Example 47, N-cyclopropyl-4-(5-(5-((4-methylpiperazin-1-yl)methyl)thiophen-2-yl)-1H-pyrrolo[2,3-b]pyridin-3-yl)-5,6-dihydropyridine-1(2H)-carboxamide], for which the 50% inhibitory concentration (IC50) in test [1] was 3.6 nM; in test [2], 12 nM.
The corresponding values for `O=C(NC1CC1)N1CC=C(c2c[nH]c3ncc(-c4ccc(CN5CCOCC5)s4)cc23)CC1` [Example 48, N-cyclopropyl-4-(5-(5-(morpholinomethyl)thiophen-2-yl)-1H-pyrrolo[2,3-b]pyridin-3-yl)-5,6-dihydropyridine-1(2H)-carboxamide] are 8.2 nM and 10 nM.
The corresponding values for `COc1ccc(-c2cnc3[nH]cc(C4=CCN(C(=O)NC5CCCC5)CC4)c3c2)cc1F` [Example 50, N-cyclopentyl-4-(5-(3-fluoro-4-methoxyphenyl)-1H-pyrrolo[2,3-b]pyridin-3-yl)-5,6-dihydropyridine-1(2H)-carboxamide] are 330 nM and 410 nM.
The corresponding values for `CS(=O)(=O)c1cccc(-c2cnc3[nH]cc(C4=CCN(C(=O)NC5CCCC5)CC4)c3c2)c1` [Example 52, N-cyclopentyl-4-(5-(3-(methylsulfonyl)phenyl)-1H-pyrrolo[2,3-b]pyridin-3-yl)-5,6-dihydropyridine-1(2H)-carboxamide] are 23 nM and 48 nM.
As to `CCS(=O)(=O)c1cccc(-c2cnc3[nH]cc(C4=CCN(C(=O)NC5CCCC5)CC4)c3c2)c1` [Example 54, N-cyclopentyl-4-(5-(3-(ethylsulfonyl)phenyl)-1H-pyrrolo[2,3-b]pyridin-3-yl)-3,6-dihydropyridine-1(2H)-carboxamide], the IC50 in test [1] worked out at 32 nM; in test [2], 84 nM.
The corresponding values for `CCCS(=O)(=O)c1ccc(-c2cnc3[nH]cc(C4=CCN(C(=O)NC5CCCC5)CC4)c3c2)cc1` [Example 55, N-cyclopentyl-4-(5-(4-(propylsulfonyl)phenyl)-1H-pyrrolo[2,3-b]pyridin-3-yl)-5,6-dihydropyridine-1(2H)-carboxamide] are 51 nM and 600 nM.
The corresponding values for `O=C(NC1CCCC1)N1CC=C(c2c[nH]c3ncc(-c4ccc(S(=O)(=O)C5CC5)cc4)cc23)CC1` [Example 56, N-cyclopentyl-4-(5-(4-(cyclopropylsulfonyl)phenyl)-1H-pyrrolo[2,3-b]pyridin-3-yl)-5,6-dihydropyridine-1(2H)-carboxamide] are 58 nM and 190 nM.
